Measurements published in patent US10752587B2, “Homobispiperidinyl derivatives as liver X receptor beta agonists, compositions and their use” (Merck Sharp & Dohme Corp., priority 2015, dated 2020).
Where two headings read alike, the source gives them in different places.

What was measured:
[1] = target: T1, glutathione-S-transferase (GST) tagged LXRbeta LBD (ligand binding domain) (Homo sapiens, UniProt P55055); assay: LanthaScreen TR-FRET Liver X Receptor Coactivator Assay, co-activator recruitment to LXRbeta LBD; format: biochemical
T1 construct: purchased Invitrogen pv4658.pps
T1 sequence (P55055 222-460 limits assumed): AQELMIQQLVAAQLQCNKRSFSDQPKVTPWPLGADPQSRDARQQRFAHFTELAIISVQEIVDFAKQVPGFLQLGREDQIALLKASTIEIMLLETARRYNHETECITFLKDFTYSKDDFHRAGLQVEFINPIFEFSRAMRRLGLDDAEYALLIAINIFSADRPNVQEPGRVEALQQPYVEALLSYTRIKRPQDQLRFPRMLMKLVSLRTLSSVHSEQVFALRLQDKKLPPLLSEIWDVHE
Method in brief: (§1)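 GST-tagged LBD added to test compound, then fluorescein-labelled coactivator peptide plus terbium anti-GST antibody; incubated at room temperature, TR-FRET read. Potency given as inflection point and efficacy as Emax relative to reference dual agonist T0901317.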

[2] = target: T2, glutathione-S-transferase (GST) tagged LXRalpha LBD (ligand binding domain) (Homo sapiens, UniProt Q13133); assay: LanthaScreen TR-FRET Liver X Receptor Coactivator Assay, co-activator recruitment to LXRalpha LBD; format: biochemical; conditions: for LXR alpha IP (nM) / EC50: potency (Inflection Point, IP), co-activator recruitment to LXRalpha LBD, in relation to T0901317; for EC50: read-out: LXR alpha IP
T2 construct: purchased Invitrogen pv4655
T2 sequence (Q13133 209-447 limits assumed): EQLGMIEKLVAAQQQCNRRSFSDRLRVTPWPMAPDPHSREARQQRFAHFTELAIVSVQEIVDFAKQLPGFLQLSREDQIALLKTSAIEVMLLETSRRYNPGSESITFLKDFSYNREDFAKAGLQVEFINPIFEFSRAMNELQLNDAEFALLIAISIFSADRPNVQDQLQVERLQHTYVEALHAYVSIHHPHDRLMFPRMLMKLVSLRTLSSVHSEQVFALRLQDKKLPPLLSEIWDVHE
Method in brief: as §1

[3] = efficacy at max dose, in relation to reference dual agonist T0901317, read-out: LXR beta Activity @ max dose (%)
[4] = potency (Inflection Point, IP), co-activator recruitment to LXRbeta LBD, in relation to T0901317, read-out: LXR beta IP
[5] = efficacy at max dose, in relation to reference dual agonist T0901317, read-out: LXR alpha Activity @ max dose (%)

Emax [1, 3] | EC50 [1, 4] | Emax [2, 5] | LXR alpha IP (nM) [2] | EC50 [2] | EC50 ([1]; co-activator recruitment to GST-LXRbeta LBD, TR-FRET, read-out: LXR beta IP (Inflection Point, potency)) | Emax ([1]; efficacy in relation to reference dual agonist T0901317, read-out: LXR beta Activity @ max dose) | LXR alpha IP (Inflection Point, potency) ([2]; co-activator recruitment to GST-LXRalpha LBD, TR-FRET) | Emax ([2]; efficacy in relation to reference dual agonist T0901317, read-out: LXR alpha Activity @ max dose) | SMILES
92% | 22 nM | 14% | NO IP | – | – | – | – | – | COc1cccc([C@@](O)(C(=O)N2CC(CC3CCN(c4ccc(C(=O)N(C)C)c(Cl)n4)CC3)C2)C(F)(F)F)c1 [Example 7-45, 2-chloro-N,N-dimethyl-6-[4-({1-[(2R)-3,3,3-trifluoro-2-hydroxy-2-(3-methoxyphenyl)propanoyl]azetidin-3-yl}methyl)piperidin-1-yl]pyridine-3-carboxamide]
99% | 78 nM | 46% | – | 3550 nM | – | – | – | – | CN(C)C(=O)c1ccc(N2CCC(CC3CCN(C(=O)C(O)(c4cccnc4)C(F)(F)F)CC3)CC2)cc1Cl (stereo not drawn) [Example 2-90, 2-chloro-N,N-dimethyl-4-(4-{[1-(3,3,3-trifluoro-2-hydroxy-2-pyridin-3-ylpropanoyl)piperidin-4-yl]methyl}piperidin-1-yl)benzamide]
115% | 125 nM | 35% | – | 2260 nM | – | – | – | – | CNC(=O)c1ccc(N2CCC(OC3CCN(C(=O)[C@](O)(c4ccccc4)C(F)(F)F)CC3)CC2)cc1Cl [Example 7-26, 2-chloro-N-methyl-4-[4-({1-[(2R)-3,3,3-trifluoro-2-hydroxy-2-phenylpropanoyl]piperidin-4-yl}oxy)piperidin-1-yl]benzamide]
74% | 43 nM | 38% | – | 402 nM | – | – | – | – | CN(C(=O)c1ccc(N2CCC(CC3CCN(C(=O)[C@](O)(c4ccccc4)C(F)(F)F)CC3)CC2)cc1Cl)C1CC1 [Example 4-11, 2-chloro-N-cyclopropyl-N-methyl-4-[4-({1-[(2R)-3,3,3-trifluoro-2-hydroxy-2-phenylpropanoyl]piperidin-4-yl}methyl)piperidin-1-yl]benzamide]
79% | 4 nM | 23% | – | 38 nM | – | – | – | – | CN(C)C(=O)c1ccc(N2CCC(CC3(C)CCN(C(=O)[C@](O)(c4cc(F)cc(Cl)c4)C(F)(F)F)CC3)CC2)cc1Cl [Example 2-54, 2-chloro-4-[4-({1-[(2R)-2-(3-chloro-5-fluorophenyl)-3,3,3-trifluoro-2-hydroxy-propanoyl]-4-methylpiperidin-4-yl}methyl)piperidin-1-yl]-N,N-dimethyl-benzamide]
44% | 8 nM | 0% | NO IP | – | – | – | – | – | CC(C)Oc1cccc([C@@](O)(C(=O)N2CCC(C)(CC3CCN(c4ccc(C(=O)N(C)C)c(Cl)c4)CC3)CC2)C(F)(F)F)c1 [Example 2-55, 2-chloro-N,N-dimethyl-4-{4-[(4-methyl-1-{(2R)-3,3,3-trifluoro-2-hydroxy-2-[3-(1-methyl-ethoxy)phenyl]propanoyl}piperidin-4-yl)methyl]piperidin-1-yl}benzamide]
– | – | – | – | – | 75 nM | 41% | NO IP | 12% | CN(C)C(=O)c1ccc(N2CCC(CC3CCN(S(=O)(=O)c4cc(F)cc(F)c4)CC3)CC2)cc1Cl [Example 13-6, 2-chloro-4-[4-({1-[(3,5-difluorophenyl)-sulfonyl]piperidin-4-yl}methyl)piperidin-1-yl]-N,N-dimethylbenzamide]
43% | 141 nM | 25% | – | 765 nM | – | – | – | – | O=C(c1ccc(N2CCC(CC3CCN(C(=O)[C@](O)(c4ccccc4)C(F)(F)F)CC3)CC2)cc1Cl)N1CCC(n2ccnc2)C1 (stereo partly drawn) [Example 4-19, (2R)-3-(4-{[1-(3-chloro-4-{[3-(1H-imidazol-1-yl)pyrrolidin-1-yl]carbonyl}phenyl)piperidin-4-yl]methyl}piperidin-1-yl)-1,1,1-trifluoro-3-oxo-2-phenylpropan-2-ol]
71% | 20 nM | 0% | NO IP | – | – | – | – | – | CCOc1cccc([C@@](O)(C(=O)N2CC(CC3CCN(c4ccc(C(=O)N(C)C)c(Cl)c4)CC3)C2)C(F)(F)F)c1 [Example 2-62, 2-chloro-4-[4-({1-[(2R)-2-(3-ethoxy-phenyl)-3,3,3-trifluoro-2-hydroxy-propanoyl]azetidin-3-yl}methyl)piperidin-1-yl]-N,N-dimethyl-benzamide]
53% | 8 nM | 13% | NO IP | – | – | – | – | – | CN(C)C(=O)c1ccc(N2CCC(CC3CCN(C(=O)C(O)(c4cc(Cl)cc(Cl)c4)C(F)(F)F)CC3)CC2)nc1Cl (stereo not drawn) [Example 7-83, 2-chloro-6-[4-({1-[2-(3,5-dichlorophenyl)-3,3,3-trifluoro-2-hydroxypropanoyl]piperidin-4-yl}methyl)piperidin-1-yl]-N,N-dimethylpyridine-3-carboxamide]
74% | 9 nM | 52% | – | 58 nM | – | – | – | – | NC(=O)c1ccc(N2CCC(CC3CCN(C(=O)[C@](O)(c4ccccc4)C(F)(F)F)CC3)CC2)cc1Cl [Example 12-2, 2-chloro-4-[4-({1-[(2R)-3,3,3-trifluoro-2-hydroxy-2-phenyl-propanoyl]piperidin-4-yl}methyl)piperidin-1-yl]benzamide]
59% | 6 nM | 5% | NO IP | – | – | – | – | – | COc1cc(F)cc([C@@](O)(C(=O)N2CCC(C)(CC3CCN(c4ccc(C(=O)N(C)C)c(Cl)c4)CC3)CC2)C(F)(F)F)c1 [Example 2-49, 2-chloro-N,N-dimethyl-4-[4-({4-methyl-1-[(2R)-3,3,3-trifluoro-2-(3-fluoro-5-methoxyphenyl)-2-hydroxy-propanoyl]piperidin-4-yl}methyl)piperidin-1-yl]benzamide]
54% | 73 nM | 7% | NO IP | – | – | – | – | – | O=C(NCCn1cncn1)c1ccc(N2CCC(CC3CCN(C(=O)[C@](O)(c4cc(Cl)cc(Cl)c4)C(F)(F)F)CC3)CC2)cc1Cl [Example 7-130, 2-chloro-4-[4-({1-[(2R)-2-(3,5-dichlorophenyl)-3,3,3-trifluoro-2-hydroxypropanoyl]piperidin-4-yl}methyl)piperidin-1-yl]-N-[2-(1H-1,2,4-triazol-1-yl)ethyl]benzamide]
80% | 6 nM | 34% | – | 442 nM | – | – | – | – | COc1nc(N2CCC(CC3CCN(C(=O)[C@](O)(c4ccccc4)C(F)(F)F)CC3)CC2)ccc1C(=O)N(C)C [Example 7-18, 2-methoxy-N,N-dimethyl-6-[4-({1-[(2R)-3,3,3-trifluoro-2-hydroxy-2-phenylpropanoyl]piperidin-4-yl}methyl)piperidin-1-yl] pyridine-3-carboxamide]
59% | 157 nM | 5% | NO IP | – | – | – | – | – | CN(C)C(=O)c1ccc(N2CCC(CC3CCN(C(=O)C(C)(C)c4ccccc4)CC3)CC2)cc1Cl [Example 2-1, 2-chloro-N,N-dimethyl-4-(4-((1-(2-methyl-2-phenylpropanoyl)piperidin-4-yl)methyl)piperidin-1-yl)benzamide]
80% | 57 nM | 19% | – | 663 nM | – | – | – | – | CN(C)C(=O)c1ccc(N2CCC(CC3CCN(C(=O)C4(c5ccccc5)CCCC4)CC3)CC2)nc1Cl [Example 7-64, 2-chloro-N,N-dimethyl-6-[4-({1-[(1-phenylcyclopentyl)carbonyl]piperidin-4-yl}methyl)piperidin-1-yl]pyridine-3-carboxamide]
30% | 76 nM | 0% | NO IP | – | – | – | – | – | COc1cc(Cl)cc(C(O)(C(=O)N2CCC(CC3CCN(c4ccc(C(=O)N(C)C)c(Cl)n4)CC3)CC2)C(F)(F)F)c1 (stereo not drawn) [Example 7-105, 2-chloro-6-[4-({1-[2-(3-chloro-5-methoxyphenyl)-3,3,3-trifluoro-2-hydroxypropanoyl]piperidin-4-yl}methyl)piperidin-1-yl]-N,N-dimethylpyridine-3-carboxamide]
65% | 66 nM | 8% | NO IP | – | – | – | – | – | COc1cccc([C@@](O)(C(=O)N2CCC(CC3(C)CCN(c4ccc(C(=O)N(C)C)c(C)n4)CC3)CC2)C(F)(F)F)c1 [Example 7-16, N,N,2-trimethyl-6-[4-methyl-4-({1-[(2R)-3,3,3-trifluoro-2-hydroxy-2-(3-methoxyphenyl)propanoyl]piperidin-4-yl}methyl)piperidin-1-yl]pyridine-3-carboxamide]
